“And” between values parts separate entries of the source, which are not always exact repeats. Equal values may be shown once.
What was measured:
[1] = tested on: prostate specific antigen (PSA) assay; assay: PSA chemiluminescent immunoassay, interfering substances (endogenous compounds, chemotherapeutic agents); settings: mean over three PSA levels
Method: A prostate specific antigen (PSA) assay has been developed for the above described automated analyzer. The PSA assay utilizes an anti-PSA antibody solid phase and a labeled anti-PSA antibody as a tracer reagent. […] A test sample (100 uL.), tracer reagent (50 uL.) and solid phase reagent (250 uL.) are dispersed into a cuvette by the analyzer and incubated for 7.5 minutes at 37° C. After the incubation, magnetic separation and washes are performed as described above prior to detection of the chemiluminescent signal.
All data presented was generated based on a two-point calibration off a standard curve consisting of eight points.

[2] = tested on: T4 antiserum covalently coupled to the solid phase; assay: Free thyroxine (FT4) competitive chemiluminescent immunoassay, specificity (% cross-reactivity); format: binding; settings: FT4 assay, anti-T4 paramagnetic particles, 7.5 minutes at 37° C.
Method: A free thyroxine (FT4) assay has been developed for the above described automated analyzer. The FT4 assay is a competitive binding assay in which FT4 in a test sample competes with labeled T4 (tracer reagent) for a limited amount of T4 antiserum covalently coupled to the solid phase. In the preferred format of this assay acridinium ester is the label and paramagnetic particles serve as the solid phase. A test sample (25 uL.) acridinium ester labeled T4 (100 uL.) and anti-T4 paramagnetic particles (450 uL.) are dispensed by the analyzer into a cuvette and incubated for 7.5 minutes at 37° C. After incubation, magnetic separation and washes are performed as described prior to detection of the chemiluminescent signal. The amount of FT4 present in the test sample is determined by the level of the signed detected and is converted to a dose by a two-point data reduction algorithm.

[3] = tested on: monoclonal anti-digoxin antibody; assay: Digoxin chemiluminescent immunoassay, specificity (cross-reactivity, effect on dose); format: binding; settings: digoxin assay
Method: (§1) A digoxin assay has been developed for the above described automated analyzer. The digoxin assay architecture is a hapten solid phase with a labeled antibody (tracer reagent). In the preferred format of this assay, the tracer reagent is an acridinium ester labeled monoclonal anti-digoxin antibody; and the solid phase is paramagnetic particles to which digoxin-apoferritin has been immobilized. A test sample (150 uL.) and tracer reagent (50 uL.) are dispensed into a cuvette by the analyzer and incubated for 2.5 minutes at 37° C. The solid phase reagent (250 uL.) is then added to the cuvette followed by an additional incubation of 5.0 minutes. After the second incubation, magnetic separation and washes are performed as described above prior to detection of the chemiluminescent signal.
(§2) All data presented was generated based upon a two-point recalibration off an original master curve. The master curve was generated using eight standards with values ranging from zero to 6 ng/mL digoxin.
The test assay has a sensitivity of less than 0.1 ng/mL (minimum detectable dose defined as the 95% confidence limit at 0 ng/mL.) with a range of 0-5 ng/mL. The correlation of the automated test assay with a manual test assay (Magic^R Digoxin, Ciba Corning Diagnostics, Corp.) provided a slope of 1.00, an intercept of 0.08 and a correlation coefficient of 0.97 (N=130).

[4] = tested on: human chorionic gonadotropin (hCG) assay; assay: hCG sandwich immunoassay, interfering substances (NCCLS protocols); settings: bilirubin 20, lipid 1,000, hemolysate 500 mg/dL
Method: A human chorionic gonadotropin (hCG) assay has been developed for the above described automated analyzer. […] A test sample (50 uL.) and tracer reagent (100 uL.) are dispensed into a cuvette by the analyzer and incubated for 5.0 minutes at 37° C. The capture solid phase reagent (450 uL.) is then added to the cuvette followed by an additional incubation of 2.5 minutes. After the second incubation, magnetic separation and washes are performed as described above prior to detection of the chemiluminescent signal.
All data presented was generated based on a two-point calibration off a full standard master curve, consisting of ten standards. The standards, ranging from zero to 1000 mIU/mL., are calibrated against the WHO 1st 75/537 reference material.

[5] = Digoxin immunoassay, interfering substances (NCCLS protocols); settings: bilirubin 20, lipid 1,000, hemolysate 500 mg/dL
Method: as §1, with “In the preferred format of this assay, the tracer reagent is an acridinium ester labeled monoclonal anti-digoxin antibody; and the solid phase is paramagnetic particles to which digoxin-apoferritin has been immobilized.” left out
as §2

## COc1cccc2c1C(=O)c1c(O)c3c(c(O)c1C2=O)C[C@@](O)(C(=O)CO)C[C@@H]3O[C@H]1C[C@H](N)[C@H](O)[C@H](C)O1 [Doxorubicin]
[1]; chemotherapeutic agents
  Spiked vs. Control, Mean +/− SD: 100 +/− 3%

## N[C@@H](Cc1cc(I)c(O)c(I)c1)C(=O)O [Diiodotyrosine]
[2]
  % Cross-Reactivity: <0.002%

## CC(=O)O[C@]1(C(C)=O)CC[C@H]2[C@@H]3C=C(C)C4=CC(=O)CC[C@]4(C)[C@H]3CC[C@@]21C [Megestrol Acetate]
[1]; chemotherapeutic agents
  Spiked vs. Control, Mean +/− SD: 101 +/− 5%

## CC/C(=C(/CC)c1ccc(O)cc1)c1ccc(O)cc1 [Diethyl-Stilbesterol]
[1]; chemotherapeutic agents
  Spiked vs. Control, Mean +/− SD: 101 +/− 5%

## N[C@@H](Cc1ccc(O)c(I)c1)C(=O)O [Monoiodotyrosine]
[2]
  % Cross-Reactivity: <0.002%

## Hemoglobin: endogenous interferent spiked into patient samples at 500 mg/dL
[1]; endogenous interferents
  Spiked vs. Control, Mean +/− SD: 99 +/− 4%

## N[C@H](Cc1cc(I)c(Oc2ccc(O)c(I)c2)c(I)c1)C(=O)O [D-triiodothyronine]
[2]
  % Cross-Reactivity: 3.6%

## CO[C@H]1[C@@H](O)C[C@H](O[C@H]2[C@@H](O)C[C@H](O[C@H]3[C@@H](O)C[C@H](O[C@H]4CC[C@@]5(C)[C@H](CC[C@@H]6[C@@H]5C[C@@H](O)[C@]5(C)[C@@H](C7=CC(=O)OC7)CC[C@]65O)C4)O[C@@H]3C)O[C@@H]2C)O[C@@H]1C [β-Methyldigoxin]
[3]
  % Cross-Reactivity: 109.4%

## N[C@@H](Cc1cc(I)c(Oc2ccc(O)c(I)c2)c(I)c1)C(=O)O [L-triiodothyronine]
[2]
  % Cross-Reactivity: 3.9%

## N[C@@H](Cc1cc(I)c(Oc2ccc(O)cc2)c(I)c1)C(=O)O [3,5-diiodo-L-thyronine]
[2]
  % Cross-Reactivity: <0.002%

## C[C@H]1O[C@@H](O[C@H]2[C@@H](O)C[C@H](O[C@H]3[C@@H](O)C[C@H](O[C@H]4CC[C@@]5(C)[C@H](CC[C@@H]6[C@@H]5CC[C@]5(C)[C@@H](C7=CC(=O)OC7)CC[C@]65O)C4)O[C@@H]3C)O[C@@H]2C)C[C@H](O)[C@@H]1O [Digitoxin]
[3]
  % Cross-Reactivity: 0.6%

## NC(Cc1ccc(Oc2cc(I)c(O)c(I)c2)c(I)c1)C(=O)O (centres unmarked) [Reverse triiodothyronine]
[2]
  % Cross-Reactivity: 3.1%

## Conjugated Bilirubin
[4]
  Spiked vs. Control: 102%
[5]
  Spiked vs. Control: 106% and 99%
[1]; endogenous interferents
  Spiked vs. Control, Mean +/− SD: 101 +/− 9%

## C[C@H]1O[C@@H](O[C@H]2CC[C@@]3(C)[C@H](CC[C@@H]4[C@@H]3C[C@@H](O)[C@]3(C)[C@@H](C5=CC(=O)OC5)CC[C@]43O)C2)C[C@H](O)[C@@H]1O[C@H]1C[C@H](O)[C@H](O[C@H]2C[C@H](O)[C@H](O[C@@H]3O[C@H](CO)[C@@H](O)[C@H](O)[C@H]3O)[C@@H](C)O2)[C@@H](C)O1 [Deslanoside]
[3]
  % Cross-Reactivity: 94.6%

## C=CC1=C(C)/C(=C/c2[nH]c(Cc3[nH]c(/C=C4\NC(=O)C(C)=C4C=C)c(C)c3CCC(=O)O)c(CCC(=O)O)c2C)NC1=O [Unconjug. Bilirubin]
[4]
  Spiked vs. Control: 106% and 98% and 103%
[5]
  Spiked vs. Control: 105% and 99%
[1]; endogenous interferents
  Spiked vs. Control, Mean +/− SD: 103 +/− 6%

## O=P1(N(CCCl)CCCl)NCCCO1 (centres unmarked) [Cyclophosphamide]
[1]; chemotherapeutic agents
  Spiked vs. Control, Mean +/− SD: 98 +/− 3%

## C[C@@H]1O[C@@H](O[C@H]2C[C@@H](O)[C@]3(CO)[C@H]4[C@H](O)C[C@]5(C)[C@@H](C6=CC(=O)OC6)CC[C@]5(O)[C@@H]4CC[C@]3(O)C2)[C@H](O)[C@H](O)[C@H]1O [Ouabain]
[3]
  % Cross-Reactivity: 7.3%

## CC(=O)O[C@H]1C[C@H](O[C@H]2[C@@H](O)C[C@H](O[C@H]3[C@@H](O)C[C@H](O[C@H]4CC[C@@]5(C)[C@H](CC[C@@H]6[C@@H]5C[C@@H](O)[C@]5(C)[C@@H](C7=CC(=O)OC7)CC[C@]65O)C4)O[C@@H]3C)O[C@@H]2C)O[C@H](C)[C@H]1O[C@@H]1O[C@H](CO)[C@@H](O)[C@H](O)[C@H]1O [Lanatoside C]
[3]
  % Cross-Reactivity: 87.1%

## N[C@H](Cc1cc(I)c(Oc2cc(I)c(O)c(I)c2)c(I)c1)C(=O)O [D-thyroxine]
[2]
  % Cross-Reactivity: >64%

From US6555062B1, “Reagent container for an automated analyzer” (Bayer Corporation, priority 1991, dated 2003)
